Literature values, collected in article PMC10904332 (Science (New York, N.Y.), 2022).

Conditions: known resistance mechanisms

bacitracin
MIC increase from resistance mechanisms: > 254 fold
